Molecules are shown by their SMILES. Where “and” joins values, the source holds several entries; their conditions need not be identical. Equal values may be shown once.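 Five concentrations, 48 hours, 96-well plates. The concentration for 50% growth inhibition is given as GI50. TGI: concentration producing complete growth inhibition.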

For this experiment, the system named is P388 leukemia. The experiment is described as follows: NCI tumour cell line growth inhibition, 48 h.

With `CCC/C=C/C=C/C(=O)OC1/C(=C/C(=O)OC)CC2CC(C(C)O)OC(=O)CC(O)CC3CC(OC(C)=O)C(C)(C)C(O)(CC4C/C(=C/C(=O)OC)CC(/C=C/C(C)(C)C1(O)O2)O4)O3` (stereo not drawn), the GI50 is 9.73 µM; the TGI was 10.9 µM and 11 µM.
`NC(CSC(c1ccccc1)(c1ccccc1)c1ccccc1)C(=O)O` (stereo not drawn) had a TGI of 38.8 µM.
